Laboratory results reported in patent US8252832B2, “Kinesin inhibitors as cancer therapeutics” (Novartis AG, priority 2007, dated 2012).
Read-outs that look alike come from different tables or passages of the source.

Test system: panel of cell lines and tumor explants
Experiment: Soft agar (clonogenic) assay on cell lines and tumor explants
Type: cell-based, human
Set-up: key to Differential: panel average log(GI50) minus sample log(GI50); positive = more sensitive
Settings: for GI50: Homo sapiens; for Differential: average log(GI50) 0.236 minus log(GI50)
Protocol: Compound IIa was tested against a panel of cell lines and tumor explants in a soft agar assay as described in Fiebig, H. H., Maier, A., and Burger, A. M. (Clonogenic assay with established human tumour xenorafts: correlation of in vitro to in vivo activity as a basis for anticancer drug discovery, Eur. J. Cancer 40, 802-820 (2004).) Table 16 lists the type of cancer, the name of the sample, its GI50 (concentration needed to achieve 50% growth inhibition) value in the assay, the logarithm of the GI50 (log(GI50), and the relative sensitivity of each sample (Differential). The differential is calculated by subtracting the log(GI50) for each cell line from the average log(GI50) across the entire panel (0.236 in this case); a positive value indicates a sample that is more sensitive than average, whereas a negative value indicates a sample that is less sensitive than average.

CC(C)(C)[C@H](c1nc(-c2cc(F)ccc2F)cn1Cc1ccccc1)N(CC[C@H](N)CF)C(=O)CO [Compound IIa]
GI50 (MOLT-4, Leukemia (ALL), sample MOLT4, read-out: GI50): 0.877 nM | GI50 (Mean across the entire panel, read-out: GI50): 1.72 nM | GI50 (Melanoma, sample 462, GI50 in nM, read-out: log(GI50) (converted)): ≥ 10 nM | GI50 (Melanoma, sample 462, read-out: GI50): 10 nM | GI50 (Melanoma, sample 989, GI50 in nM, read-out: log(GI50) (converted)): 12.7 nM | GI50 (Melanoma, sample 989, read-out: GI50): 12.7 nM | GI50 (Melanoma, sample 1341, GI50 in nM, read-out: log(GI50) (converted)): ≥ 10 nM | GI50 (Melanoma, sample 1341, read-out: GI50): 10 nM | GI50 (NSCLC, sample 211, GI50 in nM, read-out: log(GI50) (converted)): 0.216 nM | GI50 (NSCLC, sample 211, read-out: GI50): 0.216 nM | GI50 (NSCLC, sample 289, GI50 in nM, read-out: log(GI50) (converted)): 4.9 nM | GI50 (NSCLC, sample 289, read-out: GI50): 4.9 nM | GI50 (NSCLC, sample 526, GI50 in nM, read-out: log(GI50) (converted)): 1.26 nM | GI50 (NSCLC, sample 526, read-out: GI50): 1.26 nM | GI50 (NSCLC, sample 629, GI50 in nM, read-out: log(GI50) (converted)): ≥ 10 nM | GI50 (NSCLC, sample 629, read-out: GI50): 10 nM | GI50 (NSCLC, sample 677, GI50 in nM, read-out: log(GI50) (converted)): 1.16 nM | GI50 (NSCLC, sample 677, read-out: GI50): 1.16 nM | GI50 (NSCLC, sample 737, GI50 in nM, read-out: log(GI50) (converted)): 3.07 nM | GI50 (NSCLC, sample 737, read-out: GI50): 3.07 nM | GI50 (NSCLC, sample 1012, GI50 in nM, read-out: log(GI50) (converted)): 0.927 nM | GI50 (NSCLC, sample 1012, read-out: GI50): 0.926 nM | GI50 (NSCLC, sample 1176, GI50 in nM, read-out: log(GI50) (converted)): 3 nM | GI50 (NSCLC, sample 1176, read-out: GI50): 3 nM | GI50 (NSCLC, sample 1422, GI50 in nM, read-out: log(GI50) (converted)): 0.728 nM | GI50 (NSCLC, sample 1422, read-out: GI50): 0.728 nM | GI50 (NSCLC, sample 1647, GI50 in nM, read-out: log(GI50) (converted)): 16.7 nM | GI50 (NSCLC, sample 1647, read-out: GI50): 16.8 nM | GI50 (Ovarian, sample 899, GI50 in nM, read-out: log(GI50) (converted)): ≥ 10 nM | GI50 (Ovarian, sample 899, read-out: GI50): 10 nM | GI50 (Ovarian, sample 1353, GI50 in nM, read-out: log(GI50) (converted)): ≥ 10 nM | GI50 (Ovarian, sample 1353, read-out: GI50): 10 nM | GI50 (PC-3M, Prostate, sample PC3M, GI50 in nM, read-out: log(GI50) (converted)): 0.424 nM | GI50 (PC-3M, Prostate, sample PC3M, read-out: GI50): 0.424 nM | GI50 (Pancreas, sample 546, GI50 in nM, read-out: log(GI50) (converted)): 2.59 nM | GI50 (Pancreas, sample 546, read-out: GI50): 2.59 nM | GI50 (Pancreas, sample 736, GI50 in nM, read-out: log(GI50) (converted)): 1.26 nM | GI50 (Pancreas, sample 736, read-out: GI50): 1.26 nM | GI50 (Pancreas, sample 1657, GI50 in nM, read-out: log(GI50) (converted)): 27 nM | GI50 (Pancreas, sample 1657, read-out: GI50): 27 nM | GI50 (Pancreas, sample 1861, GI50 in nM, read-out: log(GI50) (converted)): 0.622 nM | GI50 (Pancreas, sample 1861, read-out: GI50): 0.623 nM | GI50 (Pancreas, sample 1869, GI50 in nM, read-out: log(GI50) (converted)): 10.9 nM | GI50 (Pancreas, sample 1869, read-out: GI50): 10.9 nM | GI50 (Pancreas, sample 1872, GI50 in nM, read-out: log(GI50) (converted)): 0.282 nM | GI50 (Pancreas, sample 1872, read-out: GI50): 0.282 nM | GI50 (Pancreas, sample 1876, GI50 in nM, read-out: log(GI50) (converted)): 0.337 nM | GI50 (Pancreas, sample 1876, read-out: GI50): 0.337 nM | GI50 (Pancreas, sample 1881, GI50 in nM, read-out: log(GI50) (converted)): 2.32 nM | GI50 (Pancreas, sample 1881, read-out: GI50): 2.32 nM | GI50 (Pancreas, sample 1887, GI50 in nM, read-out: log(GI50) (converted)): ≥ 10 nM | GI50 (Pancreas, sample 1887, read-out: GI50): 10 nM | GI50 (Pancreas, sample 1900, GI50 in nM, read-out: log(GI50) (converted)): 16.9 nM | GI50 (Pancreas, sample 1900, read-out: GI50): 16.9 nM | GI50 (Pancreas, sample 1912, GI50 in nM, read-out: log(GI50) (converted)): 0.112 nM | GI50 (Pancreas, sample 1912, read-out: GI50): 0.112 nM | GI50 (Pancreas, sample 1937, GI50 in nM, read-out: log(GI50) (converted)): 0.185 nM | GI50 (Pancreas, sample 1937, read-out: GI50): 0.185 nM | GI50 (Prostate, sample MRIH1579, GI50 in nM, read-out: log(GI50) (converted)): ≥ 10 nM | GI50 (Prostate, sample MRIH1579, read-out: GI50): 10 nM | GI50 (SCLC, sample 538, GI50 in nM, read-out: log(GI50) (converted)): 0.339 nM | GI50 (SCLC, sample 538, read-out: GI50): 0.339 nM | GI50 (SCLC, sample 573, GI50 in nM, read-out: log(GI50) (converted)): 0.587 nM | GI50 (SCLC, sample 573, read-out: GI50): 0.587 nM | GI50 (SCLC, sample 615, GI50 in nM, read-out: log(GI50) (converted)): 0.082 nM | GI50 (SCLC, sample 615, read-out: GI50): 0.082 nM | GI50 (SCLC, sample 650, GI50 in nM, read-out: log(GI50) (converted)): 0.376 nM | GI50 (SCLC, sample 650, read-out: GI50): 0.376 nM | GI50 (SCLC, sample H69, GI50 in nM, read-out: log(GI50) (converted)): 0.269 nM | GI50 (SCLC, sample H69, read-out: GI50): 0.269 nM | GI50 (Sarcoma, sample 117, GI50 in nM, read-out: log(GI50) (converted)): 0.249 nM | GI50 (Sarcoma, sample 117, read-out: GI50): 0.249 nM | GI50 (Sarcoma, sample 417, GI50 in nM, read-out: log(GI50) (converted)): 0.16 nM | GI50 (Sarcoma, sample 417, read-out: GI50): 0.16 nM | GI50 (Sarcoma, sample 463, GI50 in nM, read-out: log(GI50) (converted)): 19.1 nM | GI50 (Sarcoma, sample 463, read-out: GI50): 19.1 nM | GI50 (Sarcoma, sample 627, GI50 in nM, read-out: log(GI50) (converted)): ≥ 10 nM | GI50 (Sarcoma, sample 627, read-out: GI50): 10 nM | GI50 (Sarcoma, sample 1186, GI50 in nM, read-out: log(GI50) (converted)): 0.327 nM | GI50 (Sarcoma, sample 1186, read-out: GI50): 0.327 nM | GI50 (Sarcoma, sample 1301, GI50 in nM, read-out: log(GI50) (converted)): 0.235 nM | GI50 (Sarcoma, sample 1301, read-out: GI50): 0.235 nM | GI50 (Sarcoma, sample 1410, GI50 in nM, read-out: log(GI50) (converted)): 2.24 nM | GI50 (Sarcoma, sample 1410, read-out: GI50): 2.25 nM | GI50 (U-937, Lymphoma (NHL), sample U937, GI50 in nM, read-out: log(GI50) (converted)): 0.0859 nM | GI50 (U-937, Lymphoma (NHL), sample U937, read-out: GI50): 0.086 nM | Differential (Leukemia (ALL), sample CCRFCEM): 0.779 | Differential (Leukemia (ALL), sample JURKAT): 1.211 | Differential (Leukemia (ALL), sample MOLT4): 0.293 | Differential (Leukemia (CML), sample K562): 0.805 | Differential (Lymphoma (NHL), sample U937): 1.302 | log(GI50) (Mean across the entire panel, GI50 in nM): 0.236 | Differential (Melanoma, sample 462): −0.764 | Differential (Melanoma, sample 989): −0.868 | Differential (Melanoma, sample 1341): −0.764 | Differential (NSCLC, sample 211): 0.902 | Differential (NSCLC, sample 289): −0.454 | Differential (NSCLC, sample 526): 0.134 | Differential (NSCLC, sample 629): −0.764 | Differential (NSCLC, sample 677): 0.171 | Differential (NSCLC, sample 737): −0.250 | Differential (NSCLC, sample 1012): 0.270 | Differential (NSCLC, sample 1176): −0.241 | Differential (NSCLC, sample 1422): 0.374 | Differential (NSCLC, sample 1647): −0.988 | Differential (Ovarian, sample 899): −0.764 | Differential (Ovarian, sample 1353): −0.764 | Differential (Pancreas, sample 546): −0.177 | Differential (Pancreas, sample 736): 0.134 | Differential (Pancreas, sample 1657): −1.194 | Differential (Pancreas, sample 1861): 0.442 | Differential (Pancreas, sample 1869): −0.800 | Differential (Pancreas, sample 1872): 0.786 | Differential (Pancreas, sample 1876): 0.709 | Differential (Pancreas, sample 1881): −0.128 | Differential (Pancreas, sample 1887): −0.764 | Differential (Pancreas, sample 1900): −0.992 | Differential (Pancreas, sample 1912): 1.187 | Differential (Pancreas, sample 1937): 0.969 | Differential (Prostate, sample 22RV1): 0.506 | Differential (Prostate, sample DU145): 0.236 | Differential (Prostate, sample MRIH1579): −0.764 | Differential (Prostate, sample PC3M): 0.609 | Differential (SCLC, sample 538): 0.706 | Differential (SCLC, sample 573): 0.468 | Differential (SCLC, sample 615): 1.323 | Differential (SCLC, sample 650): 0.661 | Differential (SCLC, sample H69): 0.807 | Differential (Sarcoma, sample 117): 0.840 | Differential (Sarcoma, sample 417): 1.032 | Differential (Sarcoma, sample 463): −1.045 | Differential (Sarcoma, sample 627): −0.764 | Differential (Sarcoma, sample 1186): 0.722 | Differential (Sarcoma, sample 1301): 0.865 | Differential (Sarcoma, sample 1410): −0.115 | sensitive samples / samples (bladder): 4/6 | sensitive samples / samples (breast): 7/10 | sensitive samples / samples (hematological cancers (leukemia and lymphoma)): 5/5 | sensitive samples / samples (sarcomas): 4/7 | sensitive samples / samples (small cell lung cancer (SCLC)): 5/5 | average log(GI50) across the entire panel (soft agar assay panel): 0.236
